Active and inactive are the calls of the source. No cut-off for these calls is given here.

2 compounds from ChEMBL document CHEMBL5500372, “Novel natural osthole-inspired amphiphiles as membrane targeting antibacterials against methicillin-resistant Staphylococcus aureus (MRSA)” (Eur J Med Chem, 2024) can be followed below.

For data set [1], the system named is Staphylococcus aureus. Briefly: Bactericidal activity against Staphylococcus aureus ATCC 29213 assessed as eradication of bacteria at 8 times MIC measured after 8 hrs by time-kill assay. It counts as functional, organism-based.
Data set [2] relates to Staphylococcus aureus. Briefly: Bactericidal activity against methicillin-resistant Staphylococcus aureus clinical isolate 16 assessed as eradication of bacteria at 8 times MIC measured after 8 hrs by time-kill assay. It counts as functional, organism-based.
Data set [3] relates to Staphylococcus aureus. Description: Antibacterial activity against methicillin-resistant Staphylococcus aureus clinical isolate 16 infected in female KM mouse skin abscess model assessed as effect on abscess in back skin at 5 mg/kg, sc measured after 24 hrs. In kind it is functional, organism-based.
In data set [4] the test system is Staphylococcus aureus. Description: Antibacterial activity against methicillin-resistant Staphylococcus aureus clinical isolate 16 infected in female KM mouse skin abscess model assessed as effect on abscess in intradermal tissue at 5 mg/kg, sc measured after 24 hrs. In kind it is functional, organism-based.
In data set [5] the test system is Staphylococcus aureus. Briefly: Antibacterial activity against methicillin-resistant Staphylococcus aureus clinical isolate 16 infected in female KM mouse skin abscess model assessed as reduction in inflammatory cells at 5 mg/kg, sc measured after 24 hrs by H and E staining based analysis. It counts as functional, organism-based.
Data set [6] concerns Staphylococcus aureus. Briefly: Antibacterial activity against methicillin-resistant Staphylococcus aureus clinical isolate 16 infected in female KM mouse skin abscess model assessed as reduction in number of MRSA cells at 5 mg/kg, sc measured after 24 hrs. It counts as functional, organism-based.
Data set [7] deals with Staphylococcus aureus. Description: Antibacterial activity against methicillin-resistant Staphylococcus aureus clinical isolate 16 infected in female KM mouse skin abscess model assessed as reduction in bacterial load at 5 mg/kg, sc measured after 24 hrs relative to control. It counts as functional. More on the design: scale not given: the % may be the effect or the level left.

Data set [8] deals with Staphylococcus aureus. Briefly: Antibacterial activity against methicillin-resistant Staphylococcus aureus clinical isolate 16 infected in female KM mouse skin abscess model assessed as log reduction in bacterial load at 5 mg/kg, sc measured after 24 hrs (reference value: 8.508 log10CFU/g). In kind it is functional.
In data set [9] the test system is Staphylococcus aureus. Description: Antibacterial activity against methicillin-resistant Staphylococcus aureus clinical isolate 16 infected in female KM mouse skin abscess model assessed as reduction in TNF-alpha level at 5 mg/kg, sc measured after 24 hrs by ELISA method. In kind it is functional, organism-based. In general terms: An ELISA detects its analyte on a solid surface through an enzyme-linked reagent.

The subject of data set [10] is Staphylococcus aureus. Briefly: Antibacterial activity against methicillin-resistant Staphylococcus aureus clinical isolate 16 infected in female KM mouse skin abscess model assessed as reduction in IL-6 level at 5 mg/kg, sc measured after 24 hrs by ELISA method. It counts as functional, organism-based.
Data set [11] is described as follows: Toxicity in female KM mouse skin abscess model infected with methicillin-resistant Staphylococcus aureus clinical isolate 16 assessed as effect on heart at 5 mg/kg, sc measured after 24 hrs by H and E staining based analysis. Particulars: in vivo. It counts as organism-based.
Data set [12] can be described thus: Toxicity in female KM mouse skin abscess model infected with methicillin-resistant Staphylococcus aureus clinical isolate 16 assessed as effect on liver at 5 mg/kg, sc measured after 24 hrs by H and E staining based analysis. In kind it is organism-based. Particulars: in vivo.
The nature of data set [13]: Toxicity in female KM mouse skin abscess model infected with methicillin-resistant Staphylococcus aureus clinical isolate 16 assessed as effect on spleen at 5 mg/kg, sc measured after 24 hrs by H and E staining based analysis. The note with it: in vivo. In kind it is organism-based.
Data set [14] in a line: Toxicity in female KM mouse skin abscess model infected with methicillin-resistant Staphylococcus aureus clinical isolate 16 assessed as effect on lung at 5 mg/kg, sc measured after 24 hrs by H and E staining based analysis. In kind it is organism-based. Particulars: in vivo.
A short description of data set [15]: Toxicity in female KM mouse skin abscess model infected with methicillin-resistant Staphylococcus aureus clinical isolate 16 assessed as effect on kidney at 5 mg/kg, sc measured after 24 hrs by H and E staining based analysis. It counts as organism-based. The note with it: in vivo.
Data set [16] in a line: Toxicity in female KM mouse skin abscess model infected with methicillin-resistant Staphylococcus aureus clinical isolate 16 assessed as histological abnormalities in heart at 5 mg/kg, sc measured after 24 hrs by H and E staining based analysis. It counts as organism-based. Particulars: in vivo.
Data set [17] is described as follows: Toxicity in female KM mouse skin abscess model infected with methicillin-resistant Staphylococcus aureus clinical isolate 16 assessed as histological abnormalities in liver at 5 mg/kg, sc measured after 24 hrs by H and E staining based analysis. Particulars: in vivo. It counts as organism-based.
A short description of data set [18]: Toxicity in female KM mouse skin abscess model infected with methicillin-resistant Staphylococcus aureus clinical isolate 16 assessed as histological abnormalities in spleen at 5 mg/kg, sc measured after 24 hrs by H and E staining based analysis. Particulars: in vivo. It counts as organism-based.
Data set [19] in a line: Toxicity in female KM mouse skin abscess model infected with methicillin-resistant Staphylococcus aureus clinical isolate 16 assessed as histological abnormalities in lung at 5 mg/kg, sc measured after 24 hrs by H and E staining based analysis. The note with it: in vivo. It counts as organism-based.
The nature of data set [20]: Toxicity in female KM mouse skin abscess model infected with methicillin-resistant Staphylococcus aureus clinical isolate 16 assessed as histological abnormalities in kidney at 5 mg/kg, sc measured after 24 hrs by H and E staining based analysis. In kind it is organism-based. The note with it: in vivo.
The test system of data set [21] is Cell membrane. Briefly: Induction of cytoplasmic membrane permeabilization in methicillin-resistant Staphylococcus aureus clinical isolate 16 assessed as increase in fluorescence intensity measured after 35 mins by SYTOX green dye based fluorescence analysis.
The subject of data set [22] is Cell membrane. Description: Induction of cytoplasmic membrane depolarization in methicillin-resistant Staphylococcus aureus clinical isolate 16 assessed as increase in fluorescence intensity measured after 35 mins by DiSC3-5 dye based fluorescence method. In kind it is cell membranes.

Turning to `CN[C@H](CC(C)C)C(=O)N[C@H]1C(=O)N[C@@H](CC(N)=O)C(=O)N[C@H]2C(=O)N[C@H]3C(=O)N[C@H](C(=O)N[C@H](C(=O)O)c4cc(O)cc(O)c4-c4cc3ccc4O)[C@H](O)c3ccc(c(Cl)c3)Oc3cc2cc(c3O[C@@H]2O[C@H](CO)[C@@H](O)[C@H](O)[C@H]2O[C@H]2C[C@](C)(N)[C@H](O)[C@H](C)O2)Oc2ccc(cc2Cl)[C@H]1O` [VANCOMYCIN], the result in the data set on Staphylococcus aureus [1] and in the data set on Staphylococcus aureus [2] was inactive. For the same compound, the result with Staphylococcus aureus [3], in the data set with Staphylococcus aureus [4], in the data set with Staphylococcus aureus [5], in the data set with Staphylococcus aureus [6], in the data set on Staphylococcus aureus [9] and in the data set on Staphylococcus aureus [10] was Active. Further, the Activity is given as 98.93% in the data set with Staphylococcus aureus [7]; 1.922 log10CFU/g in the data set with Staphylococcus aureus [8]; “Non-Toxic” in data set [11]; “Non-Toxic” in [12]; “Non-Toxic” in data set [13]; “Non-Toxic” in data set [14]. For the same compound, the Activity result in data set [15], in data set [16], in data set [17], in data set [18], in [19] and in data set [20] was “Non-Toxic” throughout.

Take `CC[C@H](C)[C@H](NC(=O)CN)C(=O)NCC(=O)N[C@@H](C)C(=O)N[C@H](C(=O)N[C@@H](CC(C)C)C(=O)N[C@@H](CCCCN)C(=O)N[C@H](C(=O)N[C@@H](CC(C)C)C(=O)N[C@H](C(=O)N[C@H](C(=O)NCC(=O)N[C@@H](CC(C)C)C(=O)N1CCC[C@H]1C(=O)N[C@@H](C)C(=O)N[C@@H](CC(C)C)C(=O)N[C@H](C(=O)N[C@@H](CO)C(=O)N[C@@H](Cc1c[nH]c2ccccc12)C(=O)N[C@H](C(=O)N[C@@H](CCCCN)C(=O)N[C@@H](CCCNC(=N)N)C(=O)N[C@@H](CCCCN)C(=O)N[C@@H](CCCNC(=N)N)C(=O)N[C@@H](CCC(N)=O)C(=O)N[C@@H](CCC(N)=O)C(N)=O)[C@@H](C)CC)[C@@H](C)CC)[C@@H](C)O)[C@@H](C)O)C(C)C)C(C)C`: the outcome in the data set with Cell membrane [21] and in the data set on Cell membrane [22] was Active.
